Experimental data published in patent publication US20150031102A1, “METHODS AND COMPOSITIONS FOR ENHANCED PRODUCTION OF BUTANOL BY CLOSTRIDIA” (Butrolix LLC, priority 2012, published 2015).

Test system: Clostridium acetobutylicum strain ATCC 824
Assay: Sequential batch transfer in 24-well culture plates (butanol, residual glucose, butanol yield and productivity)
Assay type: cell-based
Conditions: after 96 hours of culture; for Residual glucose concentration: initial glucose 60 g/L; for Butanol: Experiment 1
Method: Each well contained 1.5 mL of growth medium. Peptide was added to each well at the indicated concentration (0, 25, 50, and 100 nM). Every 24 hours fresh medium and peptide treatment were added to a new column of wells then 1.5 μL of the previous day culture was transferred to the new well. Wells were harvested for glucose and butanol analysis after 96 hours of growth. Transfers 1, 4, 7, 10, 13, 16, […].
Briefly, Clostridium spores were germinated in a suitable growth medium for 18-24 hours then […] was transferred to 1.5 mL of fresh medium in each of four wells on a 24-well culture plate. Three of the wells had been treated with 25 nM, 50 nM and 100 nM of peptide, respectively while the fourth well was untreated. Thereafter, every 24 hours […] of each subculture was transferred to 1.5 mL of fresh medium that contained the same peptide treatment or no treatment. Transfers of successive subcultures were done for 24 days, and each subculture was grown for 96 hours before being harvested. Culture supernatants were recovered following centrifugation and were analyzed for butanol and residual glucose concentrations. Determination of optimum peptide treatment levels was based on a graphical comparison of the concentration of butanol in each of the four culture wells for sequential transfers 1, 4, 7, 10, 13, 16, 19, 22 and 24.
Clostridium acetobutylicum strain ATCC 824 was used in all experiments and the growth medium used for sequential batch transfer, time course, and continuous culture experiments contained yeast extract, casamino acids, L-cysteine, L-asparagine, phosphate buffer, trace minerals, and 6% glucose. What are believed to be quorum-sensing peptides that were used in the experiments were chemically synthesized peptides SEQ ID NO: 143 (amino acid sequence: SYPGWSW) and SEQ ID NO: 144 (amino acid sequence: ILILISG). Routine growth of the bacteria as well as the sequential batch and time course experiments were conducted in a Form a Scientific Model 1029 anaerobic gas chamber at 32° C. Continuous cultures were performed at 32° C. using duplicate New Brunswick Scientific BioFlo 3000 apparati with a dilution rate of 0.01 volume per hour, 75 rpm agitation, and nitrogen gas sparging. Optical density of culture samples was measured at 600 nm in a Beckman DU 600 series spectrophotometer and glucose was analyzed using a YSI Model 2700 Select Biochemistry Analyzer with internal glucose calibration. Butanol concentrations were determined by measuring experimental and standard samples using a Varian Saturn 3 Gas Chromatograph/Mass Spectrometer and calculating butanol concentrations using standard curves.
(§1) Sequential batch transfer experiments were carried out in 24-well culture plates that contained 1.5 mL of medium per well. Peptide was added to each well at the indicated concentrations of 0 nM (control), 25 nM, 50 nM, or 100 nM. Every 24 hours, fresh medium and peptide treatments were added to a new column of wells. Then, 1.5 uL of the previous day culture was transferred to the new well. Wells were harvested for glucose and butanol analysis after 96 hours of growth; transfers 1, 4, 7, 10, 13, 16, 19, 22, and 24 were analyzed. Two representative experiments are shown in Tables 30 and 31 and FIGS. 14 and 15.
as §1, with “32” for “30”, “33” for “31”, “16” for “14”, “17.” for “15.”

[1] = 25 nM peptide, transfer 1, Expt. 2 (repeat)
[2] = 25 nM peptide, transfer 4, Expt. 2 (repeat)
[3] = 25 nM peptide, transfer 7, Expt. 2 (repeat)
[4] = 25 nM peptide, transfer 10, Expt. 2 (repeat)
[5] = 25 nM peptide, transfer 13, Expt. 2 (repeat)
[6] = 25 nM peptide, transfer 16, Expt. 2 (repeat)
[7] = 25 nM peptide, transfer 19, Expt. 2 (repeat)
[8] = 25 nM peptide, transfer 22, Expt. 2 (repeat)
[9] = 25 nM peptide, transfer 24, Expt. 2 (repeat)
[10] = 25 nM, transfer 1, first experiment
[11] = 25 nM, transfer 4, first experiment
[12] = 25 nM, transfer 7, first experiment
[13] = 25 nM, transfer 10, first experiment
[14] = 25 nM, transfer 13, first experiment
[15] = 25 nM, transfer 16, first experiment
[16] = 25 nM, transfer 19, first experiment
[17] = 25 nM, transfer 22, first experiment
[18] = 25 nM, transfer 24, first experiment
[19] = 50 nM peptide, transfer 1, Expt. 2 (repeat)
[20] = 50 nM peptide, transfer 4, Expt. 2 (repeat)
[21] = 50 nM peptide, transfer 7, Expt. 2 (repeat)
[22] = 50 nM peptide, transfer 10, Expt. 2 (repeat)
[23] = 50 nM peptide, transfer 13, Expt. 2 (repeat)
[24] = 50 nM peptide, transfer 16, Expt. 2 (repeat)
[25] = 50 nM peptide, transfer 19, Expt. 2 (repeat)
[26] = 50 nM peptide, transfer 22, Expt. 2 (repeat)
[27] = 50 nM peptide, transfer 24, Expt. 2 (repeat)
[28] = 50 nM, transfer 1, first experiment
[29] = 50 nM, transfer 4, first experiment
[30] = 50 nM, transfer 7, first experiment

SYPGWSW [peptide SEQ ID NO: 143]
Butanol concentration [1]: 0.75 g/L | Butanol productivity [1]: 0.01 g butanol/L-h | Butanol yield [1]: 0.01 g butanol/g/glucose | Residual glucose concentration [1]: 49.0 g/L | Butanol concentration [2]: 1.40 g/L | Butanol productivity [2]: 0.01 g butanol/L-h | Butanol yield [2]: 0.02 g butanol/g/glucose | Residual glucose concentration [2]: 43.5 g/L | Butanol concentration [3]: 1.83 g/L | Butanol productivity [3]: 0.02 g butanol/L-h | Butanol yield [3]: 0.03 g butanol/g/glucose | Residual glucose concentration [3]: 48.9 g/L | Butanol concentration [4]: 2.93 g/L | Butanol productivity [4]: 0.03 g butanol/L-h | Butanol yield [4]: 0.05 g butanol/g/glucose | Residual glucose concentration [4]: 43.9 g/L | Butanol concentration [5]: 2.89 g/L | Butanol productivity [5]: 0.03 g butanol/L-h | Butanol yield [5]: 0.05 g butanol/g/glucose | Residual glucose concentration [5]: 44.7 g/L | Butanol concentration [6]: 6.32 g/L | Butanol productivity [6]: 0.07 g butanol/L-h | Butanol yield [6]: 0.11 g butanol/g/glucose | Residual glucose concentration [6]: 39.1 g/L | Butanol concentration [7]: 2.65 g/L | Butanol productivity [7]: 0.03 g butanol/L-h | Butanol yield [7]: 0.05 g butanol/g/glucose | Residual glucose concentration [7]: 44.1 g/L | Butanol concentration [8]: 6.86 g/L | Butanol productivity [8]: 0.07 g butanol/L-h | Butanol yield [8]: 0.12 g butanol/g/glucose | Residual glucose concentration [8]: 0.1 g/L | Butanol concentration [9]: 5.33 g/L | Butanol productivity [9]: 0.06 g butanol/L-h | Butanol yield [9]: 0.09 g butanol/g/glucose | Residual glucose concentration [9]: 16.0 g/L | Butanol (25 nM, transfer 1): 1.21 g/L | Butanol productivity [10]: 0.01 g butanol/L-h | Butanol yield [10]: 0.02 g butanol/g/glucose | Residual glucose concentration [10]: 45.3 g/L | Butanol (25 nM, transfer 4): 11.87 g/L | Butanol productivity [11]: 0.12 g butanol/L-h | Butanol yield [11]: 0.20 g butanol/g/glucose | Residual glucose concentration [11]: 0.1 g/L | Butanol (25 nM, transfer 7): 9.09 g/L | Butanol productivity [12]: 0.09 g butanol/L-h | Butanol yield [12]: 0.15 g butanol/g/glucose | Residual glucose concentration [12]: 0.1 g/L | Butanol (25 nM, transfer 10): 12.83 g/L | Butanol productivity [13]: 0.13 g butanol/L-h | Butanol yield [13]: 0.22 g butanol/g/glucose | Residual glucose concentration [13]: 0.1 g/L | Butanol (25 nM, transfer 13): 9.97 g/L | Butanol productivity [14]: 0.10 g butanol/L-h | Butanol yield [14]: 0.17 g butanol/g/glucose | Residual glucose concentration [14]: 0.1 g/L | Butanol (25 nM, transfer 16): 11.66 g/L | Butanol productivity [15]: 0.12 g butanol/L-h | Butanol yield [15]: 0.20 g butanol/g/glucose | Residual glucose concentration [15]: 0.1 g/L | Butanol (25 nM, transfer 19): 4.37 g/L | Butanol productivity [16]: 0.05 g butanol/L-h | Butanol yield [16]: 0.07 g butanol/g/glucose | Residual glucose concentration [16]: 48.1 g/L | Butanol (25 nM, transfer 22): 7.12 g/L | Butanol productivity [17]: 0.07 g butanol/L-h | Butanol yield [17]: 0.12 g butanol/g/glucose | Residual glucose concentration [17]: 45.7 g/L | Butanol (25 nM, transfer 24): 5.06 g/L | Butanol productivity [18]: 0.05 g butanol/L-h | Butanol yield [18]: 0.08 g butanol/g/glucose | Residual glucose concentration [18]: 48.5 g/L | Butanol concentration [19]: 0.72 g/L | Butanol productivity [19]: 0.01 g butanol/L-h | Butanol yield [19]: 0.01 g butanol/g/glucose | Residual glucose concentration [19]: 48.9 g/L | Butanol concentration [20]: 1.41 g/L | Butanol productivity [20]: 0.01 g butanol/L-h | Butanol yield [20]: 0.02 g butanol/g/glucose | Residual glucose concentration [20]: 43.2 g/L | Butanol concentration [21]: 3.09 g/L | Butanol productivity [21]: 0.03 g butanol/L-h | Butanol yield [21]: 0.05 g butanol/g/glucose | Residual glucose concentration [21]: 41.3 g/L | Butanol concentration [22]: 7.69 g/L | Butanol productivity [22]: 0.08 g butanol/L-h | Butanol yield [22]: 0.13 g butanol/g/glucose | Residual glucose concentration [22]: 0.5 g/L | Butanol concentration [23]: 8.72 g/L | Butanol productivity [23]: 0.09 g butanol/L-h | Butanol yield [23]: 0.15 g butanol/g/glucose | Residual glucose concentration [23]: 0.1 g/L | Butanol concentration [24]: 10.70 g/L | Butanol productivity [24]: 0.11 g butanol/L-h | Butanol yield [24]: 0.18 g butanol/g/glucose | Residual glucose concentration [24]: 0.1 g/L | Butanol concentration [25]: 5.75 g/L | Butanol productivity [25]: 0.06 g butanol/L-h | Butanol yield [25]: 0.10 g butanol/g/glucose | Residual glucose concentration [25]: 0.1 g/L | Butanol concentration [26]: 4.54 g/L | Butanol productivity [26]: 0.05 g butanol/L-h | Butanol yield [26]: 0.08 g butanol/g/glucose | Residual glucose concentration [26]: 0.1 g/L | Butanol concentration [27]: 4.78 g/L | Butanol productivity [27]: 0.05 g butanol/L-h | Butanol yield [27]: 0.08 g butanol/g/glucose | Residual glucose concentration [27]: 0.1 g/L | Butanol (50 nM, transfer 1): 1.12 g/L | Butanol productivity [28]: 0.01 g butanol/L-h | Butanol yield [28]: 0.02 g butanol/g/glucose | Residual glucose concentration [28]: 45.5 g/L | Butanol (50 nM, transfer 4): 11.53 g/L | Butanol productivity [29]: 0.12 g butanol/L-h | Butanol yield [29]: 0.19 g butanol/g/glucose | Residual glucose concentration [29]: 0.1 g/L | Butanol (50 nM, transfer 7): 9.36 g/L | Butanol productivity [30]: 0.10 g butanol/L-h | Butanol yield [30]: 0.16 g butanol/g/glucose | Residual glucose concentration [30]: 0.1 g/L | Butanol (50 nM, transfer 10): 13.66 g/L
